Results: US11926600B2, “Sulfonylureas and sulfonylthioureas as NLRP3 inhibitors” (Inflazome Limited, priority 2017, dated 2024)

What was measured:
NLRP3 [1] = target: T1, NLRP3 (Homo sapiens, UniProt Q96P20); assay: Human whole blood IL1β release assay; assay type: cell-based; parameters: Plate out 80 μl of whole blood containing 1 μg/ml of LPS; from tissue; host or cells: human whole blood from healthy donors, LPS-primed, nigericin-stimulated; settings: LPS 1 μg/ml, nigericin 10 μM, IL-1β AlphaLisa, read-out: HWB IC50
Procedure: Human Whole Blood IL1β Release Assay
For systemic delivery, the ability to inhibit NLRP3 when the compounds are present within the bloodstream is of great importance. For this reason, the NLRP3 inhibitory activity of a number of compounds in human whole blood was investigated in accordance with the following protocol.
Human whole blood in Li-heparin tubes was obtained from healthy donors from a volunteer donor panel. • 1. Plate out 80 μl of whole blood containing 1 μg/ml of LPS in 96-well, clear bottom cell culture plate (Corning #3585) • 2. Add 10 μl compound (8 points half-log dilution with 10 μM top dose) or vehicle (DMSO 0.1% FAC) to the appropriate wells • 3. Incubate for 3 hrs at 37° C. 5% CO2 • 4. Add 10 μl Nigericin (Sigma #N7143) (10 μM FAC) to all wells • 5. Incubate for 1 hr at 37° C. 5% CO2 • 6. At the end of the incubation period, spin plates at 300×g for 5 mins to pellet cells and remove 20 μl of supernatant and add to 96-well v-bottom plates for IL-1β analysis (note: these plates containing the supernatants can be stored at −80° C. to be analysed at a later date) • 7. IL-1β was measured according to the manufacturer protocol (Perkin Elmer-AlphaLisa IL-1 Kit AL220F-5000) • 8. IC50 data is fitted to a non-linear regression equation (log inhibitor vs response-variable slope 4-parameters)

NLRP3 [2] = target: T1, NLRP3; assay: THP-1 cells pyroptosis assay; assay type: cell-based; parameters: Seed THP-1 cells (25,000 cells/well) containing 1.0 μg/ml LPS; host or cells: THP-1 cells, LPS-primed, nigericin-stimulated; settings: LPS 1 μg/ml, nigericin 5 μM, resazurin readout
Procedure: THP-1 Cells: Culture and Preparation
The cells were routinely passaged and grown to confluency (˜10^6 cells/ml). On the day of the experiment, THP-1 cells were harvested and resuspended into RPMI medium (without FBS). The cells were then counted and viability (>90%) checked by Trypan blue (Sigma #T8154). […] To this diluted cell solution was added LPS (Sigma #L4524) to give a 1 μg/ml Final Assay Concentration (FAC). 40 μl of the final preparation was aliquoted into each well of a 96-well plate. The plate thus prepared was used for compound screening.
THP-1 Cells Pyroptosis Assay
The following method step-by-step assay was followed for compound screening. • 1. […] Incubate for 3 hrs at 37° C. in 5% CO2 • 4. Add 5 μl nigericin (Sigma #N7143) (FAC 5 μM) to all wells • 5. Incubate for 1 hr at 37° C. and 5% CO2 • 6. At the end of the incubation period, spin plates at 300×g for 3 mins and remove supernatant • 7. Then add 50 μl of resazurin (Sigma #R7017) (FAC 100 μM resazurin in RPMI medium without FBS) and incubate plates for a further 1-2 hrs at 37° C. and 5% CO2 • 8. […] IC50 data is fitted to a non-linear regression equation (log inhibitor vs response-variable slope 4-parameters)

T1 sequence (Q96P20 whole entry): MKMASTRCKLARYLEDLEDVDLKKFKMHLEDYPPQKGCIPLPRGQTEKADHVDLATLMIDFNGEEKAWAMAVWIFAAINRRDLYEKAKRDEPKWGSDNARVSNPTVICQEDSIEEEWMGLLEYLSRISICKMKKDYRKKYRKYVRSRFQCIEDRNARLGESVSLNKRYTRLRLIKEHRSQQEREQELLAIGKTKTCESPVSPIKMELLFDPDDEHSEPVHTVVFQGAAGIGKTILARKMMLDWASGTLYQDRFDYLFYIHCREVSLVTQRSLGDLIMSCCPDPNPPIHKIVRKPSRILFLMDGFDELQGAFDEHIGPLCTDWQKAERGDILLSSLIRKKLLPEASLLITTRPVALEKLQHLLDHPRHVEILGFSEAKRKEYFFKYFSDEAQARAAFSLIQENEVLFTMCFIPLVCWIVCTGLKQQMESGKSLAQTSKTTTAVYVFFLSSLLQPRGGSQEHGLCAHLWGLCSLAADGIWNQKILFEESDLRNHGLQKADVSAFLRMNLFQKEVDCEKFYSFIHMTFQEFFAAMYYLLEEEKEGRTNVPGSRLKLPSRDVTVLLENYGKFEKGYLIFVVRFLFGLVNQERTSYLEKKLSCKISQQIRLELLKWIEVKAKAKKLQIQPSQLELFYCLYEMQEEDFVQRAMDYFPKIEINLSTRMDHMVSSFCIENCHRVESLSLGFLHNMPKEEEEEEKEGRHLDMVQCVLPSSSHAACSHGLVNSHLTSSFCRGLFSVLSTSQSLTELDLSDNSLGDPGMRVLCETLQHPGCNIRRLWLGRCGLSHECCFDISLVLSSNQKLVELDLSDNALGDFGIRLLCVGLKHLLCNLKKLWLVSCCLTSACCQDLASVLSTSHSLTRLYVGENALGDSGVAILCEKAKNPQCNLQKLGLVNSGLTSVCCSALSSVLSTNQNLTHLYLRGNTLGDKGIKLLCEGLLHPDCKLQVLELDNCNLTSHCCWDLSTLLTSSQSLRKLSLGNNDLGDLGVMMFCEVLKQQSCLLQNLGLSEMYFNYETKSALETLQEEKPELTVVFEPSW

SMILES	IC50 (NLRP3 [1]) [nM]	IC50 (NLRP3 [2]) [nM]
CC(C)n1cnc(S(=O)(=O)NC(=O)Nc2c(-c3ccnc(C#N)c3)ccc3c2CCC3)c1 [Example 20]	< 400	< 40
COc1cc(-c2ccc3c(c2NC(=O)NS(=O)(=O)c2cn(C(C)C)cn2)CCC3)ccn1 [Example 21]	400 to 800	40 to 160
Cc1nc(S(=O)(=O)NC(=O)Nc2c3c(cc4c2CCC4)CCC3)cn1CC1CCCO1 (stereo not drawn) [Example 16, N-((1,2,3,5,6,7-Hexahydro-s-indacen-4-yl)carbamoyl)-2-methyl-1-((tetrahydrofuran-2-yl)methyl)-1H-imidazole-4-sulfonamide]	800 to 1600	160 to 640
C[C@@H](O)Cn1cnc(S(=O)(=O)NC(=O)Nc2c3c(cc4c2CCC4)CCC3)c1 [Example 1, (R)—N-((1,2,3,5,6,7-Hexahydro-s-indacen-4-yl)carbamoyl)-1-(2-hydroxypropyl)-1H-imidazole-4-sulfonamide]	800 to 1600	160 to 640
CC(C)c1nc(S(=O)(=O)NC(=O)Nc2c3c(cc4c2CCC4)CCC3)cn1C [Example 13, N-((1,2,3,5,6,7-Hexahydro-s-indacen-4-yl)carbamoyl)-2-isopropyl-1-methyl-1H-imidazole-4-sulfonamide]	3200 to 10000	640 to 2560
COc1cc(-c2cc(F)cc(C(C)C)c2NC(=O)NS(=O)(=O)c2cn(C(C)C)cn2)ccn1 [Example 5, N-((4-Fluoro-2-isopropyl-6-(2-methoxypyridin-4-yl)phenyl)carbamoyl)-1-isopropyl-1H-imidazole-4-sulfonamide]	800 to 1600	40 to 160
CC(C)c1cc(F)cc(-c2ccnc(C#N)c2)c1NC(=O)NS(=O)(=O)c1cn(C(C)C)cn1 [Example 4, N-((2-(2-Cyanopyridin-4-yl)-4-fluoro-6-isopropylphenyl)carbamoyl)-1-isopropyl-1H-imidazole-4-sulfonamide]	400 to 800	160 to 640
Cn1ccnc1S(=O)(=O)NC(=O)Nc1c2c(cc3c1CCC3)CCC2 [Example 9, N-((1,2,3,5,6,7-Hexahydro-s-indacen-4-yl)carbamoyl)-1-methyl-1H-imidazole-2-sulfonamide]		2560 to 10000
CCn1cc(S(=O)(=O)NC(=O)Nc2c3c(cc4c2CCC4)CCC3)nc1C [Example 6, 1-Ethyl-N-((1,2,3,5,6,7-hexahydro-s-indacen-4-yl)carbamoyl)-2-methyl-1H-imidazole-4-sulfonamide]	3200 to 10000	160 to 640
CC(C)c1cccc(C(C)C)c1NC(=O)NS(=O)(=O)c1cn(C(C)C)cn1 [Example 14, N-((2,6-Diisopropylphenyl)carbamoyl)-1-isopropyl-1H-imidazole-4-sulfonamide]		2560 to 10000
CN(C)Cc1c(S(=O)(=O)NC(=O)Nc2c3c(cc4c2CCC4)CCC3)ncn1C [Example 19]	800 to 1600	160 to 640
CC(C)n1cnc(S(=O)(=O)NC(=O)Nc2c3c(cc4c2CCC4)CCC3)c1 [Example 15, N-((1,2,3,5,6,7-Hexahydro-s-indacen-4-yl)carbamoyl)-1-isopropyl-1H-imidazole-4-sulfonamide]	1600 to 3200	160 to 640
CC(C)c1cc(F)cc(-c2cnn(C)c2)c1NC(=O)NS(=O)(=O)c1cn(C(C)C)cn1 [Example 10, N-((4-Fluoro-2-isopropyl-6-(i-methyl-1H-pyrazol-4-yl)phenyl)carbamoyl)-1-isopropyl-1H-imidazole-4-sulfonamide]		2560 to 10000
Cc1nc(S(=O)(=O)NC(=O)Nc2c3c(cc4c2CCC4)CCC3)cn1C(C)C [Example 7, N-((1,2,3,5,6,7-Hexahydro-s-indacen-4-yl)carbamoyl)-1-isopropyl-2-methyl-1H-imidazole-4-sulfonamide]	1600 to 3200	160 to 640
Cn1cnc(S(=O)(=O)NC(=O)Nc2c3c(cc4c2CCC4)CCC3)c1 [Example 12, N-((1,2,3,5,6,7-Hexahydro-s-indacen-4-yl)carbamoyl)-1-methyl-1H-imidazole-4-sulfonamide]		640 to 2560
C[C@H](O)Cn1cnc(S(=O)(=O)NC(=O)Nc2c3c(cc4c2CCC4)CCC3)c1 [Example 2, (S)—N-((1,2,3,5,6,7-Hexahydro-s-indacen-4-yl)carbamoyl)-1-(2-hydroxypropyl)-1H-imidazole-4-sulfonamide]	800 to 1600	160 to 640
CC(C)c1ncc(S(=O)(=O)NC(=O)Nc2c3c(cc4c2CCC4)CCC3)n1C [Example 8, N-((1,2,3,5,6,7-Hexahydro-s-indacen-4-yl)carbamoyl)-2-isopropyl-1-methyl-1H-imidazole-5-sulfonamide]		160 to 640
CN(C)CCn1cnc(S(=O)(=O)NC(=O)Nc2c3c(cc4c2CCC4)CCC3)c1 [Example 3, 1-(2-(Dimethylamino)ethyl)-N-((1,2,3,5,6,7-hexahydro-s-indacen-4-yl)carbamoyl)-1H-imidazole-4-sulfonamide]	1600 to 3200	640 to 2560
Cc1nc(S(=O)(=O)NC(=O)Nc2c3c(cc4c2CCC4)CCC3)cn1CCO [Example 17, N-((1,2,3,5,6,7-Hexahydro-s-indacen-4-yl)carbamoyl)-1-(2-hydroxyethyl)-2-methyl-1H-imidazole-4-sulfonamide]	800 to 1600	640 to 2560
